Measured values: article PMC6010545, “Identification of a Novel Polyamine Scaffold With Potent Efflux Pump Inhibition Activity Toward Multi-Drug Resistant Bacterial Pathogens” (Frontiers in Microbiology, 2018)
In brackets after ≈: the same amount, converted by molar mass. Several values for one entry are separate records, joined by “and”; a condition that tells them apart may be missing. Equal entries are not always repeated. Where two headings read alike, the source gives them in different places. Residues, ends and D or L forms follow the SMILES beside them. No end group written: not given here. *: point of attachment. βNA = c1ccc2cc(N*)ccc2c1

What was measured:
MTT cytotoxicity assay = type: cell-based; details: human, 25 μg mL^-1, 48 h, read-out: percent recovery (cell viability)
Procedure: To assess toxicity of polyamine compounds we used HepG2 human liver carcinoma cells and Hek293T human embryonic kidney epithelial cells. The viability of cell lines was determined using a 3-(4,5-dimethylthiazol-2-yl)-2,5-diphenyltetrazolium bromide (MTT) molecular probe as previously described by our group ([Fleeman et al., 2015]). Briefly, 247, 266, 271 (Hek293T), or 250, 271, 314 (HepG2), alongside control efflux pump inhibitor PaβN, were diluted in 10% DMF from 25 μg mL^-1 to 3 μg mL^-1 using twofold dilutions, before being added to cells in DMEM with 10% FBS and 1% penicillin/streptomycin. Cells were then incubated for 48 h at 37°C with 5% CO2. Following this, viability was assessed by the addition of MTT and measuring the OD570 in a Biotek plate reader. Percent recovery was determined compared to no drug controls.

[1] = test system: tetracycline-resistant P. aeruginosa isolate 1419; assay: Checkerboard potentiation assay with tetracycline; type: cell-based, Pseudomonas aeruginosa; details: for EC50 / EC90: Pseudomonas aeruginosa
Procedure: (§1) Scaffold ranking library samples and individual polyamines were screened using checkerboard inhibitory assays to assess the potentiation of tetracycline and chloramphenicol. The test utilized a 96-well plate microtiter assay where the concentration of the scaffold or individual polyamine was decreased from 25 to 0.8 μg mL^-1 (average molarity of mixture samples 65 to 4 μM) along the rows, and the concentration of tetracycline or chloramphenicol was increased from 0.4 to 100 μM across the columns. […] However, with the known antibiotics, we report EC90 values in μM, which more accurately describes purified compounds. Plates were incubated statically at 37°C for 20 h, and the optical density (OD600) was determined using a Synergy 2 plate reader (BioTek). Potentiation modeling (detailed below) was performed to determine fold change in the 50 and 90% effective concentration of tetracycline or chloramphenicol.
(§2) Potentiation was quantified using a mathematical model developed by our group to assess the ability of library samples and individual compounds to effectively enhance the activity of tetracycline or chloramphenicol ([Hoel, 1987]). […] In this way, only libraries and compounds that potentiated tetracycline or chloramphenicol activity were pursued. The model is based on the following equation for modeling the percentage activity of a mixture of two agents with independent action ([Hoel, 1987]):
%Antibiotic & Comp(X1,X2)=%Antibiotic(X1)+%Comp(X2)−%Antibiotic(X1)⋅%Comp(X2)
Here, x1 and x2 are the concentrations of antibiotic (tetracycline or chloramphenicol) and library/compound (Comp) tested, respectively. This equation can be rearranged to model the effective percent activity (EC) of the antibiotic alone, after accounting for compound activity:
Eff%Antibiotic(X1)=%Antibiotic & Compound(X1,X2)−%Compound(X2)/1−%Compound(X2)
Thus, the model-adjusted checkerboards show the antibiotic activity post-potentiation, and from that one can determine the true change in Mic.

P. aeruginosa (1419) [2] = assay: Bactericidal assessment in combination with tetracycline; details: Pseudomonas aeruginosa, read-out: percent recovery (bacterial viability)
Procedure: Lead agents were screened for bactericidal activity as described by us previously ([Van Horn et al., 2014]; [Fleeman et al., 2015]), with the following modifications. Varying concentrations of tetracycline (0, 12, 25, and 50 μM) were used in combination with the MPC (25 μM) of lead agents 247, 250, 266, 271, and 314 against P. aeruginosa. […] Biofilm experiments were performed similar to those described by us previously ([Fleeman et al., 2015]; [von Salm et al., 2016]), with the following modifications. Polyamine agents 247, 250, 266, 271, and 314 were added at MPC into biofilm containing wells alongside varying concentrations of tetracycline (0, 12, 25, and 50 μM). Cellular viability was determined by serial dilution after a 20-h incubation at 37°C. Values were converted to percent recovery using no treatment controls. All data was generated from three biological replicates and two technical replicates.

P. aeruginosa = assay: Minimum inhibitory concentrations of antibiotics, P. aeruginosa isolates; type: cell-based; details: Pseudomonas aeruginosa, read-out: minimal inhibitory concentration
Procedure: (§3) The bacterial strains used in this study are multi-drug resistant clinical isolates that have previously been described (Supplementary Table S1; [Fleeman et al., 2015]). Organisms were grown in tryptic soy broth (TSB) for overnight cultures and cation adjusted Mueller Hinton broth (CA-MH II) was used for experimental procedures. All incubations were performed at 37°C. The minimum inhibitory concentrations (MICS) for all antibiotics tested against these organisms are shown in Supplementary Table S1.

P. aeruginosa (1419) [3] = assay: Bacterial membrane depolarization (DiSC3 dye); type: cell-based; details: 25 μg mL^-1
Procedure: To determine the level of membrane depolarization by polyamine compounds a 3,3′-dipropylthiadicarbocyanine Iodide (DiSC3) fluorescence dye was used. Exponentially growing cultures were prepared as described above, before being harvested by centrifugation. Cells were next washed in buffer a [5 mM Hepes (pH 7.2), 5 mM glucose] and resuspended to an OD600 of 0.2 in the same buffer containing 100 mM KCL and 2 μM DiSC3. Samples were allowed to equilibrate for 15 min at room temperature to ensure uptake and quenching of the dye in bacterial membranes. Cells were aliquoted into 96-well plates and polyamines were added alongside the known efflux inhibitor PAβN (all at 25 μg mL^-1). Nisin (25 μg mL^-1) was used as a positive control to display depolarization effects. A Biotek plate reader was used to monitor fluorescence of wells, with a 622 nm excitation and 670 nm emission. For graphical representation, the maximum relative fluorescence at 2 min was used for comparison of lead agents to controls.

A. baumannii 1643 = assay: Minimum inhibitory concentrations of antibiotics, A. baumannii isolate; type: cell-based; details: Acinetobacter baumannii; strain 1643; read-out: minimal inhibitory concentration
Procedure: as §3

P. aeruginosa (1419) [4] = assay: Checkerboard potentiation assay with chloramphenicol; type: cell-based; details: increasing polyamine concentration
Procedure: as §1
as §2, with “The model is based on the following equation for modeling the percentage activity of a mixture of two agents with independent action ([Hoel, 1987]):” left out

[5] = 25 µg ml-1 TPI, EC50 tetracycline no TPI / with TPI
[6] = 25 µg ml-1 TPI, EC90 tetracycline no TPI / with TPI
[7] = EC50 tetracycline without EPI / with EPI
[8] = EC90 tetracycline without EPI / with EPI
[9] = 20 h, inhibitor alone, 25 μg mL^-1 highest concentration tested, * = EC50, read-out: EPI* (inhibitory concentration of efflux pump inhibitor alone)

| Compound | FP* (fold potentiation of tetracycline EC50) [1, 5] [fold] | FP# (fold potentiation of tetracycline EC90) [1, 6] [fold] | FP* (fold potentiation of tetracycline EC50) [1, 7] | FP# (fold potentiation of tetracycline EC90) [1, 8] [fold] | EC50 [1, 9] [µg/mL] | TPI (inhibitory concentration of polyamine alone) ([1]; 25 µg ml-1 highest tested) [µg/mL] | membrane depolarization (DiSC3 fluorescence change) (P. aeruginosa (1419) [3]) | also measured |
| --- | --- | --- | --- | --- | --- | --- | --- | --- |
| NCCC[C@@H](CN[C@H](CN)Cc1ccccc1)NCCc1ccccc1 [compound 314] | 5 | 7.5 | 5 fold and 5.0 fold | 7.5 | > 25 | > 25 |  | recovery at 48 h, 25 μg mL^-1 (MTT cytotoxicity assay; HepG2 human liver carcinoma cells): 77% |
| CN(C)[C@@H]1C(O)=C(C(N)=O)C(=O)[C@@]2(O)C(O)=C3C(=O)c4c(O)cccc4[C@@](C)(O)[C@H]3C[C@@H]12 [tetracycline] |  |  |  |  |  |  |  | viability at 12 µM (P. aeruginosa (1419) [2]): 53%; viability at 25 µM (P. aeruginosa (1419) [2]): 35%; viability at 50 µM (P. aeruginosa (1419) [2]): 1%; MIC (P. aeruginosa; strain 1418): 200 µM (≈ 88.9 µg/mL); MIC (P. aeruginosa; strain 1419): 100 µM (≈ 44.4 µg/mL); EC50 ([1]; no polyamine, average across replicates, read-out: tetracycline alone EC50): 47.8 µM; EC90 ([1]; no library or polyamine, average across replicates, read-out: tetracycline alone EC90): 82.5 µM |
| NC(N)=NCCC[C@H](NC(=O)[C@@H](N)Cc1ccccc1)C(=O)Nc1ccc2ccccc2c1 [PAβN, phenylalanine arginine beta naphthalimide, reference compound] (H-Phe-Arg-βNA) |  |  | 65.5 fold | 8 | > 25 |  | strong increase in fluorescence | viability at 25 µg/mL (P. aeruginosa (1419) [2]): 76%; FP (fold potentiation of tetracycline EC90) ([1]; EC90 tetracycline no TPL / with TPL at 25 µg ml-1): 8.01 fold; EC90 ([1]; Torrey Pines Library alone, 25 µg ml-1 highest tested, read-out: TPL (inhibitory concentration of library alone, EC90)): > 25 µg/mL |
| nisin (ITSISLCTPGCKTGALMGCNMKTATCHCSIHVSK; cysteine pairing not given here; also: lantibiotic nisin-A; UniProt P13068 24-57, looked up) [positive control for membrane depolarization] |  |  |  |  |  |  | strong increase in fluorescence |  |
| C[C@H]1COc2c(N3CCN(C)CC3)c(F)cc3c(=O)c(C(=O)O)cn1c23 [levofloxacin] |  |  |  |  |  |  |  | MIC (A. baumannii 1643): 100 µM (≈ 36.1 µg/mL) |
| CNCCCC[C@H](CN)NC[C@H](Cc1ccccc1)NCCc1ccccc1 [compound 266] | 6.8 | 5.8 | 6.8 fold | 5.8 | > 25 | > 25 |  | recovery at 48 h, 25 μg mL^-1 (MTT cytotoxicity assay; Hek293T human embryonic kidney epithelial cells, vs solvent only controls): 72%; potentiation of chloramphenicol EC90 (P. aeruginosa (1419) [4]): highest potentiation values |
